Results from patent US20050020544A1, “Bicyclic CB2 cannabinoid receptor ligands” (priority 2002, published 2005).
pIC50: −log10 of the molar value.

Tests used:
male Sprague-Dawley rats = test: Chronic constriction nerve injury, neuropathic pain (Von Frey filaments); assay type: in vivo, rat
Text: The aim of this study was to assess the potential analgesic effects of the novel bicyclic CB2 binding compounds in an animal model of neuropathic pain. A peripheral monopathy was induced in the right hind limb of rats following a chronic constriction of the sciatic nerve (Bennet, G. J. & Xie, Y-K., Pain 33: 87-107, 1988). The development of mechanical allodyna was monitored using an established behavioral test (Von Frey filaments).
Pre-surgery baseline values were ascertained as the mean of 2 pre-surgery values. Once the baseline values had been established, the animals were surgically prepared by constricting the right sciatic nerve with 4 chromic cat gut loose ligatures.
The design was randomized, performed in a masked fashion as to whether drug or vehicle is being given. The animals, male Sprague-Dawley rats (average body weight 240-290 g), were allowed to acclimatize to the behavioral testing equipment prior to testing. On the testing day, the animals, at least six per treatment group, were given i.p. a single dose of one of the test compounds in a volume of 2.5 ml/kg. Fifteen minutes later, a series of Von Frey filaments (pre-calibrated prior to testing) were applied to the plantar surface of the hind paw, from below. The filaments were applied in ascending order starting with the weakest force and the withdrawal threshold for both the ipsilateral and contralateral hind paws was evaluated. Each filament was indented on the mid-plantar surface of the foot to the point where it just starts to bend; this is repeated approximately 8-10 times per filament at a frequency of approximately 1 Hz. The withdrawal threshold is defined as being the lowest force of two or more consecutive Von Frey's filaments to elicit a reflex withdrawal response (i.e. a brief paw flick) and is measured in grams.
The results are expressed as % increase in the threshold of response to Von Frey's filaments in the test compound treated group versus the vehicle treated animals and per definition the vehicle treated group yields a null baseline value. The black column represents the morphine treated animals (4 mg/kg), the gray and the dotted column bars represent two doses of compound A (0.5 and 1 mg/kg respectively).

Male Sprague Dawley rats = test: Effect on the cardiovascular system (MABP, heart rate); assay type: in vivo, rat
Method: The purpose of this study was to assess the safety of the test compounds in male Sprague Dawley rats (270-350 g, Harlan, Israel). The test compounds were dissolved in vehicle, diluted 1:20 in sterile saline and injected either i.v. or i.p. at doses ranging from 0.1 to 2 mg/kg for i.v. administration or 10 to 40 mg/kg for i.p. administration, in volumes of 0.5 ml/100 g body weight. Each treatment group was composed of at least 6 animals. A cannula (PE 50, Clay Adams, USA) was implanted into the femoral artery under halothane anesthesia (induction 4% and maintenance 1%)). The vein was cannulated for drug administration. The arterial cannula was attached to a pressure transducer (Ohmeda DT-XX USA). The transducer was connected to a data acquisition system (Biopac, USA). Recordings of the heart rate (HR), mean arterial blood pressure (MABP) and electrocardiogram (ECG lead 2) were taken for 20 minutes before treatment, for the establishment of a stable baseline, up to 60 minutes following injections of the test compounds. Animals were also connected to a temperature recorder through a rectal thermistor probe (YSI Model 400, USA) and rectal temperature was monitored along the duration of the study.
Differences between vehicle and treatments are compared by one-way ANOVA, followed by post-hoc Newman-Keuls tests (Prism software from Graphpad, San Diego).

Male ICR mice = test: Psychomimetic effects: open field locomotor activity and rectal temperature; assay type: in vivo, mouse; conditions: for hypothermia (rectal body temperature): i.v., end of open-field examination
Method: Male ICR mice (25 g average body weight, Harlan, Israel) are used for a series of tests for psychotropic effects, specifically locomotor activity and rectal temperature. […] Naïve mice were used as control. Each treatment group is composed of at least 6 animals.
Animals were placed in an open field (60×50 cm) 5 minutes after i.v. administration of the treatment or 30 minutes after i.p. injection. Their locomotor activity was recorded using a video based computer system (ViewPoint, France). The following parameters were recorded for 3 minutes: the total distance, the time and the speed traveled by the animals. An additional parameter, rectal body temperature, was monitored at the end of the open-field examination using a thermostat thermometer (Cole Parker Model 8402-00) and a thermostat probe (YSI 400 Model 402).
Results are expressed as mean±SE and the differences between vehicle and treatments are compared by ANOVA, followed by post-hoc Tukey's test.

human CB2 receptor = human CB2 receptor (Homo sapiens, UniProt P34972); test: biochemical; assay type: binding; set-up: purchased Perkin Elmer/NEN; host or cells: CHO cells, stably transfected (membranes); conditions: for pIC50: displacement of [3H]WIN 55212-2, hCB2 CHO membranes; for CB2/CB1 affinity ratio: IC50 CB1/IC50 CB2
human CB2 receptor, sequence (P34972 whole entry): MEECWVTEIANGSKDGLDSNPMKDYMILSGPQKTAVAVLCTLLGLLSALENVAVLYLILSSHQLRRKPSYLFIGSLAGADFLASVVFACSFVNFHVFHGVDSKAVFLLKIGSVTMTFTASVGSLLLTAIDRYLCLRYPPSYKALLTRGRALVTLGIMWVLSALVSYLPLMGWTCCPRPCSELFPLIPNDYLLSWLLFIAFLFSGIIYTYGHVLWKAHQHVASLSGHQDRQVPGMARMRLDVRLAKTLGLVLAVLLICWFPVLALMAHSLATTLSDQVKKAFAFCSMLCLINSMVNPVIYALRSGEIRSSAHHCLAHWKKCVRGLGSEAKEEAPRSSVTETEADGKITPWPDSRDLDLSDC
Outline: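 Displacement of 0.8 nM [^3H]WIN 55212-2 from hCB2-transfected CHO membranes (25 μg protein) was measured in HEPES buffer pH 7.4 with MgCl2, EDTA and BSA, 40 min at 30 °C. Non-specific binding was defined with 10 μM CP 55940, then samples were filtered and β-counted. IC50 was extrapolated from log concentration vs % binding.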

[1] = 20 mg/kg i.p., one hour follow-up

SMILES: CCCCCCC(C)(C)c1cc(OC)c(C2C=C(CO)C3CC2C3(C)C)c(OC)c1 (single isomer, unassigned; (+)) [HU-308, (+) {4-[4-(1,1-dimethylheptyl)-2,6-dimethoxy-phenyl]-6,6-dimethyl-bicyclo[3.1.1]hept-2-en-2-yl}-methanol, reference compound]
- increase in pain threshold (Von Frey) versus vehicle (male Sprague-Dawley rats; 5 mg/kg, separate experiment): 117%

SMILES: CCCCCCC(C)(C)c1cc(O)c(C2CC(=O)C3CC2C3(C)C)c(O)c1 (single isomer, unassigned; (-)) [Compound A, (−)-4-[4-(1,1-Dimethyl-heptyl)2,6-dihydroxy-phenyl]-6,6-dimethyl-bicyclo[3.1.1)heptan-2-one]
- effect on heart rate (Male Sprague Dawley rats; 0.1 mg/kg i.v.): minor insignificant and transient decline in HR
- decrease in MABP (Male Sprague Dawley rats; 0.1 mg/kg i.v., 5 minutes post injection): 4 mmHg
- time for MABP back to baseline range (Male Sprague Dawley rats; 0.5 mg/kg i.v.): 30 min
- decrease in MABP (Male Sprague Dawley rats; 0.5 mg/kg i.v., 5 minutes): about 25 mmHg
- time for MABP back to baseline range (Male Sprague Dawley rats; 1 mg/kg i.v.): 45 min
- decrease in MABP (Male Sprague Dawley rats; 1 mg/kg i.v., 5 minutes): about 30 mmHg
- drop in HR (Male Sprague Dawley rats; [1]): about 17 beats per minute
- drop in HR from baseline (Male Sprague Dawley rats; [1]): 5%
- maximal drop in HR (Male Sprague Dawley rats; higher doses i.v.): about 80 beats per minute
- hypotension (decrease in MABP) (Male Sprague Dawley rats; i.p., up to 30 mg/kg): ≤ 15 mmHg
- increase in pain threshold (Von Frey) versus vehicle (male Sprague-Dawley rats; 0.5 mg/kg i.p., 15 minutes): 71%
- increase in pain threshold (Von Frey) versus vehicle (male Sprague-Dawley rats; 1 mg/kg i.p., 15 minutes): 64%
- hypothermia (rectal body temperature) (Male ICR mice): about 2 °C
- IC50 to CB2, fold lower than its (+) enantiomer (human CB2 receptor; compound A versus (+) enantiomer): 10 fold
- pIC50 (human CB2 receptor): 9.00

SMILES: CCCCC(C)(C)c1cc(O)c(C2CC(=O)C3CC2C3(C)C)c(O)c1 (single isomer, unassigned; (-)) [Compound L, (−)-4-[4(1,1-Dimethyl-pentyl)-2,6-dihydroxy-phenyl]-6,6-dimethyl-bicyclo[3.1.1]heptan-2-one]
- CB2/CB1 affinity ratio (human CB2 receptor): 117
- pIC50 (human CB2 receptor): 8.42

SMILES: CCCCC(C)(C)c1cc(O)c(C2CC(=O)C3CC2C3(C)C)c(OC(=O)CCC(=O)O)c1 (single isomer, unassigned; (-)) [Compound Y, (−)-4-{4-[1,1-Dimethyl-pentyl]-2-succinate-6-hydroxy-phenyl}-6,6-dimethyl-bicyclo[3.1.1]heptan-2-one]
- CB2/CB1 affinity ratio (human CB2 receptor): 42
- pIC50 (human CB2 receptor): 8.13

SMILES: CCCCCCC(C)(C)c1cc(O)c([C@H]2CC(=O)[C@H]3C[C@@H]2C3(C)C)c(OC(=O)CCC(=O)O)c1 [Compound R, (−)-4-{4-[1,1-Dimethyl-heptyl]-2-succinate-6-hydroxy-phenyl}-6,6-dimethyl-bicyclo[3.1.1]heptan-2-one]
- amplitude of HR fluctuations (Male Sprague Dawley rats; 40 mg/kg i.p.): 10%
- average drop in HR (Male Sprague Dawley rats; 40 mg/kg i.p.): about 4 beats per minute
- reduction in MABP (Male Sprague Dawley rats; i.p., 40 mg/kg): ≤ 36 mmHg
- total distance covered (Male ICR mice; 1, 2, 3, 4, 5 and 6 mg/kg i.v., 3 minutes open field): fluctuations in total distance covered and again this phenomenon had no statistical significance
- hypothermia (rectal body temperature) (Male ICR mice): about 2 °C
- CB2/CB1 affinity ratio (human CB2 receptor): 34
- pIC50 (human CB2 receptor): 8.92
